Measured values: ChEMBL document CHEMBL1201862, “PubChem BioAssay data set” (2004)
Calls of active or inactive are those of the source.

Experiments:
Type in all cases: functional
[1] = target: DNA dC->dU-editing enzyme APOBEC-3G (Homo sapiens, UniProt Q9HC16); experiment: Dose Response confirmation of small molecule APOBEC3G DNA Deaminase Inhibitors via a fluorescence-based single-stranded DNA deaminase assay. [Related pubchem assays (depositor defined):AID493012, AID493028]
Vero = Vero cell cytotoxicity, cytotoxicity control for flavivirus capping enzyme inhibitors (AID 588742); conditions: Chlorocebus sabaeus
[2] = THP-1 cell cytotoxicity, dose response, cytotoxicity control for Vif-APOBEC3G degradation inhibitor project, THP-1 cells (AID 1117359); conditions: Human immunodeficiency virus 1, THP-1
[3] = target: Induced myeloid leukemia cell differentiation protein Mcl-1 (Homo sapiens, UniProt Q07820)
[4] = target: T1, Rac GTPase-activating protein 1 (Homo sapiens, UniProt Q9H0H5); experiment: MgcRacGAP GTPase-activating activity inhibitors, confirmation, biochemical, ADP Hunter fluorescence, primary and confirmatory (AID 624330)
T1 sequence (Q9H0H5 whole entry): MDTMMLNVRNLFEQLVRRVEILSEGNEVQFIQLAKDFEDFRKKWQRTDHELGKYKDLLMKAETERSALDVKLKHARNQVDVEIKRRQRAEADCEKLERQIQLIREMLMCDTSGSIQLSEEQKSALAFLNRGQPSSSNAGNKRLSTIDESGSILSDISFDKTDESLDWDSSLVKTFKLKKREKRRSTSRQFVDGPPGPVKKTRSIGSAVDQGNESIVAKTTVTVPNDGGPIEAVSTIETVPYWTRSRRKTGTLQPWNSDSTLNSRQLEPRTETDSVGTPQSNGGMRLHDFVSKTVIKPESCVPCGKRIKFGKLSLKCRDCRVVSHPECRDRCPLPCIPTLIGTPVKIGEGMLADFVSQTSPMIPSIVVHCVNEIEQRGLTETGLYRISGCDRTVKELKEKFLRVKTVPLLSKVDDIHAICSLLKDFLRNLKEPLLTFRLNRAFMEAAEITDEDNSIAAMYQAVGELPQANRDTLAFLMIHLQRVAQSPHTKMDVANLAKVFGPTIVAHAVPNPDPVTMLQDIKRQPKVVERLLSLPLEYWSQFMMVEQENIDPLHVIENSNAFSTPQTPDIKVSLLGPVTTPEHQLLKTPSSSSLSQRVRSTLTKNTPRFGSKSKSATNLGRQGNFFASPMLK

[5] = HeLa cell cytotoxicity, dose response, cytotoxicity control for MgcRacGAP inhibitor project (AID 624300)
Beta-galactosidase = Beta-galactosidase (Escherichia coli, UniProt Q8VNN2); experiment: beta-galactosidase enzyme inhibitors and activators, dose response, artefact control for CCR6 antagonist project, biochemical, E. coli enzyme, set 3 (AID 504712)
Genome polyprotein = Genome polyprotein (dengue virus type 2, UniProt P29990); experiment: Dengue-2 NS5 methyltransferase inhibitors, primary screen, biochemical, confirmation dose response (AID 588689)
Beta-arrestin-1 = Beta-arrestin-1 (Homo sapiens, UniProt P49407); experiment: inhibitors of arrestin peptide binding to AP2, dose response, biochemical, cherry pick 1, beta2-adaptin appendage, flow cytometry (AID 588783)
Hexokinase-1 = target: T2, Hexokinase-1 (Homo sapiens, UniProt P19367); experiment: HK1 enzyme inhibition by HKDC1 hits, SAR follow-up, selectivity assay for HKDC1 inhibitor project, biochemical, set 2, resazurin fluorescence coupled readout (AID 588356)
T2 sequence (P19367 whole entry): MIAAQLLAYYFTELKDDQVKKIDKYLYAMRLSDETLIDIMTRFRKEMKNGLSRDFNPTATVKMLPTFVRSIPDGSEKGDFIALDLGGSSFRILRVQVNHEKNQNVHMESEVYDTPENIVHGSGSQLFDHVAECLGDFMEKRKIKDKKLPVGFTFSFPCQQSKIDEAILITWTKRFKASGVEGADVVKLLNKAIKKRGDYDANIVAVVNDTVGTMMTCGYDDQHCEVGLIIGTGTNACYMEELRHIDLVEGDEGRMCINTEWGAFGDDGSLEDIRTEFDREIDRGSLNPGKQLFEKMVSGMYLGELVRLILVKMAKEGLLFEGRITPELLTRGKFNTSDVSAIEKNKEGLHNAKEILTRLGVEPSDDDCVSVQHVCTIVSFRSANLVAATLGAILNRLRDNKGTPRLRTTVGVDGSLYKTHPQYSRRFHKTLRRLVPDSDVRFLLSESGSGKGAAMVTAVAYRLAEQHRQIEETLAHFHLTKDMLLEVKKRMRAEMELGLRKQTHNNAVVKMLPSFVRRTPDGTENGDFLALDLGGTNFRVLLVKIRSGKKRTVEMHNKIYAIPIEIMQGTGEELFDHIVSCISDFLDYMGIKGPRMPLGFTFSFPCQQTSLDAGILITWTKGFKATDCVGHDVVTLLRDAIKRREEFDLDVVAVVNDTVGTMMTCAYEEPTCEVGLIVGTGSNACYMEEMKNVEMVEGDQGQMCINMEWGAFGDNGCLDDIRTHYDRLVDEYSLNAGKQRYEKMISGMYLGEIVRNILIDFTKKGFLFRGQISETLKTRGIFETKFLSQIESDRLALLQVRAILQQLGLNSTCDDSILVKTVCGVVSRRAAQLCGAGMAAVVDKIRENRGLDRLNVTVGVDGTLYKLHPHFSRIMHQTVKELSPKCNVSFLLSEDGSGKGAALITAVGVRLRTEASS

Hexokinase HKDC1 = target: T3, Hexokinase HKDC1 (Homo sapiens, UniProt Q2TB90); experiment: HKDC1 hexokinase inhibitors, SAR follow-up, biochemical, set 2 (AID 588355)
T3 sequence (Q2TB90 whole entry): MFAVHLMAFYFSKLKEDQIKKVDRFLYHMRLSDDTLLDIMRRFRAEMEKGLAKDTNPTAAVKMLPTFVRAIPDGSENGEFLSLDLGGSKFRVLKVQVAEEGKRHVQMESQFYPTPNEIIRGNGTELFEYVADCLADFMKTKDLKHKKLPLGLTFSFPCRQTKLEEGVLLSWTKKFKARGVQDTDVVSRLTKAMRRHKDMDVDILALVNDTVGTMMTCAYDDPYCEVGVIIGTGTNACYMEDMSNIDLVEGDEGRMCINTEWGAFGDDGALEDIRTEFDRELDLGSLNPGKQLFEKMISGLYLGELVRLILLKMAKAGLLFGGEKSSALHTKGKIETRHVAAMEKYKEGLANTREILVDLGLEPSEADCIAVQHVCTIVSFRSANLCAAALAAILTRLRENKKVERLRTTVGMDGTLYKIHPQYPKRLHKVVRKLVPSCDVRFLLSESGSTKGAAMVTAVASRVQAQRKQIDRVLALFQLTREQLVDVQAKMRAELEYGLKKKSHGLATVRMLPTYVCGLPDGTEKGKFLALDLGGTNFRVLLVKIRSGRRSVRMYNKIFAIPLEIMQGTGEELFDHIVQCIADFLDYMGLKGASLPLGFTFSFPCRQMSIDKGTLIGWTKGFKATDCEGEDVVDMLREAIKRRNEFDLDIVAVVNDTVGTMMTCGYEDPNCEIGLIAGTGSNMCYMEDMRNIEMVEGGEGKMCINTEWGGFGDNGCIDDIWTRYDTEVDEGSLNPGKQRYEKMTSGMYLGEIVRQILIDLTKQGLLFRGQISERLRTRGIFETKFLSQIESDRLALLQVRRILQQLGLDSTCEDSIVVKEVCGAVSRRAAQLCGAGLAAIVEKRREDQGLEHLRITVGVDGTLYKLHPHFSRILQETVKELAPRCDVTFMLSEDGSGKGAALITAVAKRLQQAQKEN

[6] = target: T4, Sentrin-specific protease 6 (Homo sapiens, UniProt Q9GZR1); experiment: SENP6 protease inhibitors, SAR follow-up, biochemical, luminescence, set 2 (AID 588598)
T4 sequence (Q9GZR1 whole entry): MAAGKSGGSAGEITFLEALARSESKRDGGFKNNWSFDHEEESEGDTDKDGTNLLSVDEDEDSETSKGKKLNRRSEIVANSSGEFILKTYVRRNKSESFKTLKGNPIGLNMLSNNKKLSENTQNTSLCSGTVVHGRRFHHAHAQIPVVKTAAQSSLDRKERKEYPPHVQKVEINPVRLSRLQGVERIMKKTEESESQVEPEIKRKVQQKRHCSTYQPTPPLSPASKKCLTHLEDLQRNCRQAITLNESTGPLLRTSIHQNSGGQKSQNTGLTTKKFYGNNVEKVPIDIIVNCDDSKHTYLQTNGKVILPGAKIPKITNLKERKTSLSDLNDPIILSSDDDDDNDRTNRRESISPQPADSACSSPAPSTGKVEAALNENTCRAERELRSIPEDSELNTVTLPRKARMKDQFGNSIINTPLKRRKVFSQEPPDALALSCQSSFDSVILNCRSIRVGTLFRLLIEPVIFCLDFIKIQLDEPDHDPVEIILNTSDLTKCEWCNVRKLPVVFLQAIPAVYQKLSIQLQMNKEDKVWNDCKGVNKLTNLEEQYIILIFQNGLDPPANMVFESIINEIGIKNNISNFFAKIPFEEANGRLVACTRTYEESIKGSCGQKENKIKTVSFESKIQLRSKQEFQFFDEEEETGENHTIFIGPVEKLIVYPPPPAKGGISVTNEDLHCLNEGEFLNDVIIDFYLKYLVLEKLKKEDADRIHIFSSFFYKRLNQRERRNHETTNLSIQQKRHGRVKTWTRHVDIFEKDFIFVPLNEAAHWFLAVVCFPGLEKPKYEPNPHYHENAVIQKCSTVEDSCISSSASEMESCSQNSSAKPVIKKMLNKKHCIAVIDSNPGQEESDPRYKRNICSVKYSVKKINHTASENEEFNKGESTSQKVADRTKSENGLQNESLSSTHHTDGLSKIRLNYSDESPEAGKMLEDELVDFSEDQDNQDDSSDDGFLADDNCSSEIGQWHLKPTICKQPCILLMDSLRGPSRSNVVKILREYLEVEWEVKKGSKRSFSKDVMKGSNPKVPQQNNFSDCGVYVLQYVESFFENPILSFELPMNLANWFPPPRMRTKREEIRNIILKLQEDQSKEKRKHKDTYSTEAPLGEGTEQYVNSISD

[7] = target: T5, Sentrin-specific protease 7 (Homo sapiens, UniProt Q9BQF6); experiment: SENP7 protease inhibitors, SAR follow-up, biochemical, luminescence, set 2 (AID 588600)
T5 sequence (Q9BQF6 whole entry): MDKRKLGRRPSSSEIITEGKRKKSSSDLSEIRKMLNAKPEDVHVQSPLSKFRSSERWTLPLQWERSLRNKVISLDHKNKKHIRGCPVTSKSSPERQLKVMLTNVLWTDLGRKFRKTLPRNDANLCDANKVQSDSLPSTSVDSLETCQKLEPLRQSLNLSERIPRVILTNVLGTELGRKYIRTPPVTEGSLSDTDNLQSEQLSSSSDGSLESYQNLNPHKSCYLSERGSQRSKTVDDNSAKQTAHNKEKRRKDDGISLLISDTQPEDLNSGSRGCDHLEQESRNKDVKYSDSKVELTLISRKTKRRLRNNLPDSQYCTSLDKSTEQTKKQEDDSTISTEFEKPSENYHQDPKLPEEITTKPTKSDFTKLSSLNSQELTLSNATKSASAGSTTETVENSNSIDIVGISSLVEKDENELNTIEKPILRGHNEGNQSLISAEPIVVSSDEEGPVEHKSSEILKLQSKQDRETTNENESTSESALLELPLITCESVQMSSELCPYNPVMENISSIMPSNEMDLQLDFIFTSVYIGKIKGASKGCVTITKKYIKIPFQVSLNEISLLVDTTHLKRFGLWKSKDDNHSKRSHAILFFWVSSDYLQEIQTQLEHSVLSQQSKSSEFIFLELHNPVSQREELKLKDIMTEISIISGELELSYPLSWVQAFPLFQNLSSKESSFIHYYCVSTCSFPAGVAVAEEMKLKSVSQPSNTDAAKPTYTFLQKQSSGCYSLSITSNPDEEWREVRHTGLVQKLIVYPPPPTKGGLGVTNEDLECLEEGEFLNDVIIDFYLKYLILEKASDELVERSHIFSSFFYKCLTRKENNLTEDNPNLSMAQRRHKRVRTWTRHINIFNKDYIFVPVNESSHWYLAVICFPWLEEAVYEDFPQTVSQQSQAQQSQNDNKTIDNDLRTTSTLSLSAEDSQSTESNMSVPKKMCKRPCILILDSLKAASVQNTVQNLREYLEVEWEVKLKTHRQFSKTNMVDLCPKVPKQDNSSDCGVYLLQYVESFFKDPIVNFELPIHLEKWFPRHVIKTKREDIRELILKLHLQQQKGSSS

Caspase-3 = target: T6, Caspase-3 (Homo sapiens, UniProt P42574); experiment: caspase-3 inhibitors as off-family protease, SAR follow-up, selectivity assay for SENP protease inhibitor project, biochemical, luminescence, set 2 (AID 588599)
T6 sequence (P42574 whole entry): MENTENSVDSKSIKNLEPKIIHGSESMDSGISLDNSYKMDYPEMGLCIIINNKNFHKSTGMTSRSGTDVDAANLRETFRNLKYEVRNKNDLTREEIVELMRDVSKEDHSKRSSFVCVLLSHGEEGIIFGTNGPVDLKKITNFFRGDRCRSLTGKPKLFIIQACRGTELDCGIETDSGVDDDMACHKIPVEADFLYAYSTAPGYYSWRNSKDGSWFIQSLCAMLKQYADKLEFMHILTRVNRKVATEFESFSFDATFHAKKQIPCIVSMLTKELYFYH

[8] = target: T7, Sentrin-specific protease 8 (Homo sapiens, UniProt Q96LD8); experiment: SENP8 protease inhibitors, SAR follow-up, biochemical, luminescence, set 2 (AID 588601)
T7 sequence (Q96LD8 whole entry): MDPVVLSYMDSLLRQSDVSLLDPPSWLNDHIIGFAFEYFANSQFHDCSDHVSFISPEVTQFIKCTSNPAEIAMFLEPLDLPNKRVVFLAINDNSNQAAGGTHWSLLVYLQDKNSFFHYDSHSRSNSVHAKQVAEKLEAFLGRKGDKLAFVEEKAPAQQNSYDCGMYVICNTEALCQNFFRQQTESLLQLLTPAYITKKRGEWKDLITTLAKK

Chain of Beta-arrestin-1 (P49407 whole entry): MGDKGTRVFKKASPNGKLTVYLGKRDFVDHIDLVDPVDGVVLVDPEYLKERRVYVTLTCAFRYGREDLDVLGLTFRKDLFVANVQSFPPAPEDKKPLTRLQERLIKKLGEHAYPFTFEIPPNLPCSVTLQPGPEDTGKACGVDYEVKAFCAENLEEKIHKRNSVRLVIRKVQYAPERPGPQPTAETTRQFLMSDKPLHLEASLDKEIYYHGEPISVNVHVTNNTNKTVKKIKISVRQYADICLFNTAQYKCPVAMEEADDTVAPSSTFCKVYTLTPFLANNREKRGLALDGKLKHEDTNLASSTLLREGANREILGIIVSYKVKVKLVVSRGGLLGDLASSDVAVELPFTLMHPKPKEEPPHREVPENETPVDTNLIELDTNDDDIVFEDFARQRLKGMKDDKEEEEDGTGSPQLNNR
Chain of Beta-galactosidase (Q8VNN2 whole entry): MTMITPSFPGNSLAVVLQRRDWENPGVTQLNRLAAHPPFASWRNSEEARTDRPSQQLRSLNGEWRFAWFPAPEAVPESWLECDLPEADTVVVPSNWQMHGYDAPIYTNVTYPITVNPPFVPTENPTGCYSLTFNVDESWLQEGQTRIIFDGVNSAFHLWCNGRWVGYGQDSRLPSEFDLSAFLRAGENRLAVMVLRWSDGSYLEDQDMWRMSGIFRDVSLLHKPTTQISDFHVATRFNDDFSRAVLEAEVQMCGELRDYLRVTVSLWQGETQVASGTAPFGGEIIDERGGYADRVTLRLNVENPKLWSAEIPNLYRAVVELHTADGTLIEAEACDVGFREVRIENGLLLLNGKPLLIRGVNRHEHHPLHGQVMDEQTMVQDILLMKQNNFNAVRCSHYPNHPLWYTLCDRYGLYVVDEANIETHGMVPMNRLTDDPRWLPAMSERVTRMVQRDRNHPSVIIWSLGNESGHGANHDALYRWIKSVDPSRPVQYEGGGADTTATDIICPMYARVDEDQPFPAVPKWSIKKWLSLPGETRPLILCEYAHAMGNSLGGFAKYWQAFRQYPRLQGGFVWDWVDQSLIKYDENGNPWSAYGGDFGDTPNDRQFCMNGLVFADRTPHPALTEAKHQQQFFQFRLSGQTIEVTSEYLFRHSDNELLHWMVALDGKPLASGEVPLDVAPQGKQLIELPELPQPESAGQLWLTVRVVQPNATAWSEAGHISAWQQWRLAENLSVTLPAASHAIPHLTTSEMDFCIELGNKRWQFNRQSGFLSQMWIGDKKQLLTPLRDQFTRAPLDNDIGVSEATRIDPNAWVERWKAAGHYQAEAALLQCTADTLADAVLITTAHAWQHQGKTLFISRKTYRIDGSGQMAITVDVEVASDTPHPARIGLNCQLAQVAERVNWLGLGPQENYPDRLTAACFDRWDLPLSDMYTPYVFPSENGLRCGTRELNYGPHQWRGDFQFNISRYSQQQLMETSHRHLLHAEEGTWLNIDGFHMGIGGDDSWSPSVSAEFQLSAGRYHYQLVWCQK
Chain of Genome polyprotein (P29990 2492-3391 limits assumed): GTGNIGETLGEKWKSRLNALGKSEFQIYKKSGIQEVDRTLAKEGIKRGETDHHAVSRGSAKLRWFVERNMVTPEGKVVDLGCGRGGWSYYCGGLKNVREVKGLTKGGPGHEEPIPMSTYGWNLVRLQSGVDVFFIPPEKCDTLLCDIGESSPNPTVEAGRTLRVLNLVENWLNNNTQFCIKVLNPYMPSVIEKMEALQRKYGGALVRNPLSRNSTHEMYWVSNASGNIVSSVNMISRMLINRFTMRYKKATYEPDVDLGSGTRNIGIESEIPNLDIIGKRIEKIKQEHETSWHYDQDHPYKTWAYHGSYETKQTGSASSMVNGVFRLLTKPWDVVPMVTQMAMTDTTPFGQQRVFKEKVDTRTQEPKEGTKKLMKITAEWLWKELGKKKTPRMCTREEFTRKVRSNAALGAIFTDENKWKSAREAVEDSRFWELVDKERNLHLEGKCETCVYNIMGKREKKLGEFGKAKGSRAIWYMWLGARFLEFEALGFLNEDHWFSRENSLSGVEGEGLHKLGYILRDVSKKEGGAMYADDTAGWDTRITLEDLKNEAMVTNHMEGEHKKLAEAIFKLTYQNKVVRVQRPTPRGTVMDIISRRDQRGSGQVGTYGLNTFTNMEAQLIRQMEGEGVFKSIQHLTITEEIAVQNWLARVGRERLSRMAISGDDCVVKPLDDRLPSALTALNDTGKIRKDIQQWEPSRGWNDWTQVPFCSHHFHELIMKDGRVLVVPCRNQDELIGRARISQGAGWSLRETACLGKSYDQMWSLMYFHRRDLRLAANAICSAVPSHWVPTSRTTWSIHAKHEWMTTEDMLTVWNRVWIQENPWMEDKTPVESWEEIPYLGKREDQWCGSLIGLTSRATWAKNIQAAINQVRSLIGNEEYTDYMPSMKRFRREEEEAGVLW
Chain of DNA dC->dU-editing enzyme APOBEC-3G (Q9HC16 whole entry): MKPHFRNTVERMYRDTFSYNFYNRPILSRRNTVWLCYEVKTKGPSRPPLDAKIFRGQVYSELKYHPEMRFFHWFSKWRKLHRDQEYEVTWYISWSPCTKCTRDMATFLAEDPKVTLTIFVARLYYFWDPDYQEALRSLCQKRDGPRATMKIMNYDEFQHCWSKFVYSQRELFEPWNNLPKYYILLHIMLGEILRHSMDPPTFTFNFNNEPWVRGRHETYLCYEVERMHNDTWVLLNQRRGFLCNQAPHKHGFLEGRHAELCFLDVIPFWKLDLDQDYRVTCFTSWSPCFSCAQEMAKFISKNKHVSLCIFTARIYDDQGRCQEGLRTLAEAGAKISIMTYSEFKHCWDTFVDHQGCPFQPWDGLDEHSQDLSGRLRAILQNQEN
Chain of Induced myeloid leukemia cell differentiation protein Mcl-1 (Q07820 whole entry): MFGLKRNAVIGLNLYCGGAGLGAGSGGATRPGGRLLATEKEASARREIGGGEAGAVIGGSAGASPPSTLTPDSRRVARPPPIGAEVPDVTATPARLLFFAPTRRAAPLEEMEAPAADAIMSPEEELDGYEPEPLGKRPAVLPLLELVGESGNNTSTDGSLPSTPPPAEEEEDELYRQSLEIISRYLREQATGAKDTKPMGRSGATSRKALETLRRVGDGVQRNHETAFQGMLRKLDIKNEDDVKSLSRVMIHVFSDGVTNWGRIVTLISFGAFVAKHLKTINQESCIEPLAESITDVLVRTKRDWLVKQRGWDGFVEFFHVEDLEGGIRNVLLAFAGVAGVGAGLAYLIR

CCC(=O)NC1=C(Cl)C(=O)C(NC(=O)CC)=C(Cl)C1=O
active: IC50 [1] 2.67 µM | CC50 (Vero) 24 µM | CC50 [2] 33.9 µM | IC50 [3] 4.29 µM | IC50 [4] 23.3 µM | CC50 [5] 48 µM | IC50 (Genome polyprotein) 5.19 µM | IC50 (Beta-arrestin-1) 2.79 µM
inactive: IC50 (Beta-galactosidase) > 66.6 µM

CCCCN1C(=O)C(NC(C)=O)c2cc(Cl)ccc21 (stereo not given)
inactive: IC50 (Hexokinase-1) > 80 µM | IC50 (Hexokinase HKDC1) > 80 µM

CCCS(=O)(=O)c1c(S(=O)(=O)CCC)c2c(C)cccn2c1C(=O)N/N=C\c1c[nH]c2ccccc12
inactive: IC50 [6] > 99 µM | IC50 [7] > 99 µM | IC50 (Caspase-3) > 99 µM | IC50 [8] > 99 µM
